Test: xn = mol fraction of the nth substance listed
Settings: 101 kPa, Liquid; for speed of sound: Sing-around technique in a fixed-path interferometer

ClC(Cl)Cl [trichloromethane] + CCCCCCO
Settings	kinematic viscosity, 303.15 K [m2/s]	kinematic viscosity, 313.15 K [m2/s]	mass density, 303.15 K [kg/m3]	mass density, 313.15 K [kg/m3]	speed of sound, 303.15 K [m/s]	speed of sound, 313.15 K [m/s]
x1 = 0.0497	4.36e-06	3.21e-06	833.07	825.31	1271	1238
x1 = 0.1004	3.88e-06	2.89e-06	855.62	847.51	1253	1220
x1 = 0.15	3.45e-06	2.59e-06	878.54	870.06	1236	1201
x1 = 0.2006	3.04e-06	2.31e-06	902.79	893.94	1217	1182
x1 = 0.2506	2.67e-06	2.05e-06	927.71	918.4	1198	1163
x1 = 0.3005	2.34e-06	1.83e-06	953.48	943.71	1180	1143
x1 = 0.3497	2.04e-06	1.6e-06	980.04	969.85	1161	1125
x1 = 0.4004	1.77e-06	1.41e-06	1008.41	997.66	1142	1105
x1 = 0.4516	1.53e-06	1.23e-06	1038.38	1027.09	1123	1086
x1 = 0.4996	1.34e-06	1.09e-06	1067.63	1055.84	1106	1069
x1 = 0.552	1.14e-06	9.5e-07	1100.94	1088.53	1087	1051
x1 = 0.6	9.87e-07	8.33e-07	1133.01	1120	1070	1034
x1 = 0.654	8.52e-07	7.35e-07	1170.75	1157	1052	1016
x1 = 0.7001	7.46e-07	6.49e-07	1204.57	1190.18	1038	1002
x1 = 0.753	6.5e-07	5.82e-07	1245.39	1230.25	1023	986
x1 = 0.7992	5.82e-07	5.22e-07	1282.69	1266.83	1010	974
x1 = 0.8511	5.08e-07	4.7e-07	1327.07	1310.35	997	961
x1 = 0.8996	4.5e-07	4.26e-07	1370.59	1352.95	987	950
x1 = 0.9502	4.06e-07	3.81e-07	1418.68	1400.1	977	941
x1 = 1	3.63e-07	3.39e-07	1469.21	1449.74	969	934

ClC(Cl)Cl [trichloromethane] + CCCCCO
Settings	kinematic viscosity, 303.15 K [m2/s]	kinematic viscosity, 313.15 K [m2/s]	mass density, 303.15 K [kg/m3]	mass density, 313.15 K [kg/m3]	speed of sound, 303.15 K [m/s]	speed of sound, 313.15 K [m/s]
x1 = 0.0603	3.29e-06	2.56e-06	838.65	830.58	1241	1206
x1 = 0.1009	3.02e-06	2.35e-06	859.39	850.98	1226	1191
x1 = 0.1484	2.7e-06	2.12e-06	884.22	875.42	1209	1173
x1 = 0.1999	2.37e-06	1.88e-06	911.83	902.58	1190	1154
x1 = 0.2517	2.08e-06	1.66e-06	940.34	930.67	1171	1135
x1 = 0.2999	1.83e-06	1.48e-06	967.6	957.42	1153	1117
x1 = 0.3492	1.61e-06	1.31e-06	996.23	985.58	1135	1099
x1 = 0.3998	1.39e-06	1.15e-06	1026.46	1015.29	1118	1082
x1 = 0.45	1.22e-06	1.02e-06	1057.32	1045.59	1101	1065
x1 = 0.5004	1.07e-06	9.03e-07	1089.21	1076.95	1084	1048
x1 = 0.5498	9.31e-07	8.02e-07	1121.44	1108.55	1068	1032
x1 = 0.6001	8.27e-07	7.22e-07	1155.25	1141.78	1053	1017
x1 = 0.6513	7.24e-07	6.43e-07	1190.8	1176.65	1038	1002
x1 = 0.7003	6.57e-07	5.85e-07	1225.93	1211.12	1025	989
x1 = 0.751	5.85e-07	5.3e-07	1263.53	1247.97	1012	977
x1 = 0.8	5.3e-07	4.83e-07	1301.08	1284.81	1001	966
x1 = 0.8503	4.87e-07	4.48e-07	1341.02	1323.97	991	956
x1 = 0.9004	4.42e-07	4.11e-07	1382.24	1364.37	982	947
x1 = 0.952	4.05e-07	3.75e-07	1426.4	1407.56	974	938
x1 = 1	3.63e-07	3.39e-07	1469.21	1449.74	969	934
